Where two headings read alike, the source gives them in different places.
Test system: Mycosphaerella graminicola; Anamorph: Septoria tritici; Bayer Code SEPTTR
Assay: Leaf blotch of wheat, foliar fungicide treatment, one day protectant (1DP) or three day curative (3DC)
Assay type: in vivo, Septoria tritici on wheat plants (variety Yuma)
Conditions: Zymoseptoria tritici, percent disease control rating
[1] = 24 h, one day protectant (1DP), read-out: SETTTR 1DP 25 ppm
[2] = 24 h, one day protectant (1DP), read-out: SEPTTR 1DP 100 ppm
[3] = 72 h, three day curative (3DC), read-out: SEPTTR 3DC 25 ppm
[4] = 72 h, three day curative (3DC), read-out: SEPTTR 3DC 100 ppm

Row | Structure (SMILES) | pest or weed control at 25 ppm [1] [%] | pest or weed control at 100 ppm [2] [%] | pest or weed control at 25 ppm [3] [%] | pest or weed control at 100 ppm [4] [%]
1 | CCCNC(=S)Nc1nc(OCc2cccc(OC)c2)ncc1F [Compound 119] | 26 to 50 | 76 to 100 | 51 to 75 | 76 to 100
2 | Nc1nc(OCc2cccc3ccccc23)ncc1F [Compound 120] | 76 to 100 | 76 to 100 | 76 to 100 | 76 to 100
3 | CC(Oc1ncc(F)c(NSc2ccccc2[N+](=O)[O-])n1)c1ccc(F)cc1 (stereo not shown) [Compound 126] | 76 to 100 | 76 to 100 | 76 to 100 | 76 to 100
4 | Nc1nc(OCCc2cccc(C(F)(F)F)c2)ncc1F [Compound 129] | 26 to 50 | 76 to 100 | 76 to 100 | 76 to 100
5 | CN(C)/C=N/c1nc(OC(=O)C(C)(C)C)ncc1F [Compound 130] | 76 to 100 | 76 to 100 | 76 to 100 | 76 to 100
6 | CN(C)/C=N/c1nc(OS(C)(=O)=O)ncc1F [Compound 131] | 26 to 50 | 51 to 75 | 26 to 50 | 76 to 100
7 | Cc1nn(C)c2sc(COc3ncc(F)c(N)n3)cc12 [Compound 132] | 76 to 100 | 76 to 100 | 76 to 100 | 76 to 100
8 | Nc1nc(OCc2cccc(CO)c2)ncc1F [Compound 133] | 51 to 75 | 76 to 100 | 51 to 75 | 76 to 100
9 | CCOC(=O)COC(=O)Nc1nc(OCc2ccccc2)ncc1F [Compound 134] | 0 to 25 | 51 to 75 | 51 to 75 | 76 to 100
10 | Nc1nc(OCc2ccc(OC(F)F)cc2)ncc1F [Compound 136] | 76 to 100 | 76 to 100 | 76 to 100 | 76 to 100
11 | ONc1nc(OCc2ccc(F)cc2)ncc1F [Compound 138] | 76 to 100 | 76 to 100 | 76 to 100 | 76 to 100
12 | Nc1nc(OCc2cc(C(F)(F)F)cc(C(F)(F)F)c2)ncc1F [Compound 139] | 26 to 50 | 51 to 75 | 0 to 25 | 26 to 50
13 | Cc1cccc(C)c1C(=O)Oc1ncc(F)c(/N=C/N(C)C)n1 [Compound 140] | 76 to 100 | 76 to 100 | 76 to 100 | 76 to 100
14 | N#Cc1cccc(COc2ncc(F)c(NC(=O)Nc3ccccc3F)n2)c1 [Compound 142] | 0 to 25 | 0 to 25 | 0 to 25 | 0 to 25
15 | Nc1nc(OCc2cccc(C(F)(F)F)c2F)ncc1F [Compound 144] | 76 to 100 | 76 to 100 | 76 to 100 | 76 to 100
16 | Cc1ccc(C(C)Oc2ncc(F)c(N)n2)cc1C (stereo not shown) [Compound 145] | 76 to 100 | 76 to 100 | 76 to 100 | 76 to 100
17 | CC(C)N(O)c1nc(OCc2ccc(F)cc2)ncc1F [Compound 147] | 0 to 25 | 51 to 75 | 26 to 50 | 26 to 50
18 | COc1cccc(COc2ncc(F)c(N/N=C\c3nc(C)cs3)n2)c1 [Compound 148] | 51 to 75 | 51 to 75 | 0 to 25 | 0 to 25
19 | CC(Oc1ncc(F)c(NC(=O)c2ccccc2)n1)c1ccc(F)cc1 (stereo not shown) [Compound 149] | 26 to 50 | 76 to 100 | 0 to 25 | 51 to 75
20 | CCOC(=O)Nc1nc(OCc2ccccc2OC)ncc1F [Compound 150] | 0 to 25 | 76 to 100 | 26 to 50 | 76 to 100
21 | O=[N+]([O-])c1ccccc1SNc1nc(OCc2ccc3c(c2)OCO3)ncc1F [Compound 151] | 0 to 25 | 0 to 25 | 26 to 50 | 26 to 50
22 | Cc1cc(/C=N/Nc2nc(OCc3ccccc3)ncc2F)n(C)n1 [Compound 152] | 26 to 50 | 76 to 100 | 26 to 50 | 76 to 100

Row | Structure (SMILES) | pest or weed control at 25 ppm [1] [%] | pest or weed control at 100 ppm [2] [%] | pest or weed control at 25 ppm [3] [%] | pest or weed control at 100 ppm [4] [%]
23 | N#Cc1cccc(COc2ncc(F)c(NCO)n2)c1 [Compound 153] | 76 to 100 | 76 to 100 | 76 to 100 | 76 to 100
24 | Nc1nc(OCc2c(F)cc(Br)cc2F)ncc1F [Compound 154] | 76 to 100 | 76 to 100 | 76 to 100 | 76 to 100
25 | Nc1nc(OCc2ccc(F)c(Br)c2)ncc1F [Compound 156] | 76 to 100 | 76 to 100 | 76 to 100 | 76 to 100
26 | O=[N+]([O-])c1ccccc1SNc1nc(OCc2ccsc2)ncc1F [Compound 157] | 26 to 50 | 76 to 100 | 26 to 50 | 26 to 50
27 | COCCCOc1ncc(F)c(NC(=O)Nc2ccsc2)n1 [Compound 159] | 0 to 25 | 0 to 25 | 26 to 50 | 0 to 25
28 | CN1CCCC/C1=N\c1nc(OCc2ccc(F)cc2)ncc1F [Compound 160] | 76 to 100 | 76 to 100 | 76 to 100 | 76 to 100
29 | COc1cccc(COc2ncc(F)c(NO)n2)c1 [Compound 161] | 76 to 100 | 76 to 100 | 26 to 50 | 76 to 100
30 | Cc1ccc(COc2ncc(F)c(NCOCc3ccccc3)n2)cc1 [Compound 162] | 26 to 50 | 76 to 100 | 0 to 25 | 0 to 25
31 | N#Cc1cccc(COc2ncc(F)c(NCOCc3ccccc3)n2)c1 [Compound 167] | 0 to 25 | 26 to 50 | 0 to 25 | 0 to 25
32 | Fc1ccccc1CNc1nc(OCc2cccs2)ncc1F [Compound 168] | 0 to 25 | 26 to 50 | 0 to 25 | 26 to 50
33 | CCCNC(=O)Nc1nc(OCc2ccc(OC)c(F)c2)ncc1F [Compound 170] | 0 to 25 | 0 to 25 | 0 to 25 | 0 to 25
34 | CCc1ccc(COc2ncc(F)c(N)n2)cc1 [Compound 171] | 76 to 100 | 76 to 100 | 76 to 100 | 76 to 100
35 | COCCOc1ncc(F)c(N)n1 [Compound 172] | 0 to 25 | 0 to 25 | 0 to 25 | 0 to 25
36 | CC(Oc1ncc(F)c(N)n1)c1ccc(C(C)(C)C)cc1Cl (stereo not shown) [Compound 173] | 51 to 75 | 76 to 100 | 0 to 25 | 51 to 75
37 | COCCOC(=O)Nc1nc(OCc2ccccc2)ncc1F [Compound 174] | 76 to 100 | 76 to 100 | 76 to 100 | 76 to 100
38 | CC(Oc1ncc(F)c(N)n1)c1ccc(-c2ccc(Br)cc2)cc1 (stereo not shown) [Compound 175] | 76 to 100 | 76 to 100 | 0 to 25 | 0 to 25
39 | CCOC(=O)COC(=O)Nc1nc(OCc2ccc(C)cc2)ncc1F [Compound 176] | 51 to 75 | 76 to 100 | 76 to 100 | 76 to 100
40 | N#Cc1cccc(COc2ncc(F)c(/N=C/N3CCOCC3)n2)c1 [Compound 177] | 76 to 100 | 76 to 100 | 76 to 100 | 76 to 100
41 | Nc1nc(OCc2ccc3c(c2)OCO3)ncc1F [Compound 178] | 76 to 100 | 76 to 100 | 76 to 100 | 76 to 100
42 | CC(=O)Nc1nc(OCc2ccc(C)cc2)ncc1F [Compound 179] | 76 to 100 | 76 to 100 | 76 to 100 | 76 to 100
43 | Nc1nc(O/N=C2\CCc3ccccc32)ncc1F [Compound 181] | 76 to 100 | 76 to 100 | 76 to 100 | 76 to 100

Reference: patent US9204653B2, “5-fluoro pyrimidine derivatives” (DOW AGROSCIENCES LLC, priority 2008, dated 2015)
